Structures can show the parent of a compound that is named as a salt. Where two headings read alike, the source gives them in different places.
Biological target: T1, recombinant human MGAT2 enzyme (Homo sapiens, UniProt Q3SYC2)
T1 construct: made in house; host or cells: CHO-K1 (Jump-In CHO-K1 Kit, Life Technologies); microsomal fraction used as the enzyme solution
Assay: Test for human MGAT2 activity inhibitory action (14C-oleoyl CoA, recombinant enzyme microsomes)
Format: biochemical
Set-up: key to Potency relative to Comparative Example 1 (higher = more potent): % inhibition = {1−(C−B)/(A−B)}×100, B = 10 μM Comparative Example 1
Conditions: for IC50: read-out: IC50
Description: The human MGAT2 gene described in Am. J. Physiol. Endocrinol. Metab. 285: E927-E937, 2003 was expressed using Jump-In™ CHO-K1 Kit (Life technologies) as described in the attached manual. The cells were suspended in a buffer containing Tris-hydrochloric acid (pH 7.4) at a final concentration of 1 mM, 1 mM ethylenediaminetetraacetic acid, 1 mM dithiothreitol, 250 mM sucrose, and complete protease inhibitor cocktail (Roche applied Science), and then disrupted using a Teflon homogenizer (AS ONE Corporation), followed by centrifugation at 130 g for 10 minutes. The supernatant was further centrifuged at 100,000 g for 1 hour to obtain a pellet as microsomes containing the recombinant enzyme, and a solution obtained by suspending this pellet at a protein concentration of about 800 to 1900 μg/ml was used as an MGAT recombinant enzyme solution.
To a buffer containing 50 mM Tris-hydrochloric acid (pH 7.4), 6 mM magnesium chloride, and 2 mg/mL bovine serum albumin, a test compound was added, and the final concentration of dimethyl sulfoxide was adjusted to 0.3%. Moreover, 2-monooleoyl glycerol, oleoyl CoA, 1-^14C-oleoyl CoA (Perkin Elmer), and orlistat (SIGMA) were added at final concentrations of 50 μM, 50 μM, 2.2 μM, and 8.3 μM, respectively, followed by incubation at 37° C. for 10 minutes. After 10 minutes, the recombinant human MGAT2 enzyme solution was added at a final concentration of 0.67 μg/mL, and the reaction was started, with the amount of the reaction solution being 150 μl. The reaction was carried out at 37° C. for 30 minutes.
After 30 minutes, the reaction was stopped by adding 300 μl of isopropanol:heptane:water=(80:20:2) to the reaction liquid. Further, 200 μl of heptane and 100 μl of water were added, followed by stirring. Then, 100 μl of the upper layer was transferred to a 96-well plate (Corning), and mixed with 100 μl of liquid scintillator (LumaSafe Plus, Lumac). Then, the ^14C count was quantitatively determined using TopCount NXT™ microplate scintillation luminescence counter (Perkin Elmer).
The ^14C count in a case where no test compound was added was defined as A, the ^14C count in a case where 10 μM of the compound (Comparative Example 1) of Example No. 8 of WO2008/038768 was added was defined as B, and the ^14C count in the case where the test compound was added was taken as C. For this case, {1−(C−B)/(A−B)}×100(%) was calculated as the human MGAT2 activity inhibition ratio of the test compound (shown in the column named vs Comp. Ex. 1 in the following Table). A greater value of the “vs Comparative Example 1” means that the MGAT2 activity inhibitory action of the compound of Example was higher as compared to the MGAT2 activity inhibitory action of the compound of Comparative Example 1 (i.e., the human MGAT2 activity inhibition ratio was higher). […] Since this evaluation test was conducted for two separate groups, the test results of the two groups are shown separately in Table (First Test) and Table 4 (Second Test).
Next, the compounds of Examples 25 to 60 of the present invention were also investigated for their pharmacological action by using the same method as in Examples 1 to 24. […] Note that, a comparative evaluation test against the compound of Comparative Example 1 was conducted for each of the compounds of Examples (in every measurement of the inhibitory activity of the compounds of Examples 25 to 60, the inhibitory activity of the compound of Comparative Example 1 was measured). The 50% inhibition concentrations of Comparative Example 1 in the measurement of the inhibitory activities of the compounds of Examples 25 to 60 were shown in Table 5 as “IC50 (nM) of Comparative Example 1.”

[1] = Second Test (Table 4), relative to Comparative Example 1
[2] = Table 5, Examples 25 to 60, same method
[3] = Table 5, relative to Comparative Example 1 measured in the same run

T1 sequence (Q3SYC2 whole entry): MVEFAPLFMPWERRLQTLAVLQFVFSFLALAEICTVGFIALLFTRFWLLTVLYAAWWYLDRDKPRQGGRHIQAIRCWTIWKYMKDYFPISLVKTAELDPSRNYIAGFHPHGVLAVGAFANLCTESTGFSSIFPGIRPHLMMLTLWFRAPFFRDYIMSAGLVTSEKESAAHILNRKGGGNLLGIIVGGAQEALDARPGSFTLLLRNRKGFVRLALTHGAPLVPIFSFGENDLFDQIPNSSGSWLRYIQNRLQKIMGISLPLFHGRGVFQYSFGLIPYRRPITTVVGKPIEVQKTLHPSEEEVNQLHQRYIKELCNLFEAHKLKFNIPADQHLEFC

Row | SMILES | IC50 (Second Test (Table 4)) [nM] | Potency relative to Comparative Example 1 (higher = more potent) [1] | IC50 [2] [nM] | Potency relative to Comparative Example 1 (higher = more potent) [3]
1 | O=C(CCNCc1csc2ccccc12)N1CCc2nc(SC3CCC3)n(-c3ccccc3)c(=O)c2C1 [Example 20, 6-[3-(benzothiophen-3-ylmethylamino)propanoyl]-2-cyclobutylsulfanyl-3-phenyl-7,8-dihydro-5H-pyrido[4,3-d]pyrimidin-4-one trifluoroacetate] | 1 | 300 |  | 
2 | O=C(CCNCc1cc2ccccc2[nH]1)N1CCc2nc(SC3CCC3)n(-c3ccccc3)c(=O)c2C1 [Example 21, 2-cyclobutylsulfanyl-6-[3-(1H-indol-2-ylmethylamino)propanoyl]-3-phenyl-7,8-dihydro-5H-pyrido[4,3-d]pyrimidin-4-one trifluoroacetate] | 1.2 | 246 |  | 
3 | O=C(CCCNCc1ccc(C(F)(F)F)cc1)N1CCc2nc(SC3CCC3)n(-c3ccccc3)c(=O)c2C1 [Example 22, 2-cyclobutylsulfanyl-3-phenyl-6-[4-[[4-trifluoromethyl)phenyl]methylamino]butanoyl]-7,8-dihydro-5H-pyrido[4,3-d]pyrimidin-4-one trifluoroacetate] | 3.8 | 79 |  | 
4 | O=C(CCNCCc1c[nH]c2ccccc12)N1CCc2nc(SC3CCC3)n(-c3ccccc3)c(=O)c2C1 [Example 23, 2-cyclobutylsulfanyl-6-[3-[2-(1H-indol-3-yl)ethylamino]propanoyl]-3-phenyl-7,8-dihydro-5H-pyrido[4,3-d]pyrimidin-4-one trifluoroacetate)] | 1.6 | 193 |  | 
5 | O=C(CCNCc1ccc(OC(F)(F)F)cc1)N1CCc2nc(SC3CCC3)n(-c3ccccc3)c(=O)c2C1 [Example 24, 2-cyclobutylsulfanyl-3-phenyl-6-[3-[[4-(trifluoromethoxy)phenyl]methylamino]propanoyl]-7,8-dihydro-5H-pyrido[4,3-d]pyrimidin-4-one trifluoroacetate)] | 1.4 | 221 |  | 
6 | [2H]c1c([2H])c([2H])c(C([2H])([2H])NCCC(=O)N2CCc3nc(SC4CCC4)n(-c4ccccc4)c(=O)c3C2)c([2H])c1[2H] [Example 25, 2-cyclobutylsulfanyl-6-[3-[[dideuterio-(2,3,4,5,6-pentadeuteriophenyl)methyl]amino]propanoyl]-3-phenyl-7,8-dihydro-5H-pyrido[4,3-d]pyrimidin-4-one trifluoroacetate] |  |  | 2.2 | 111
7 | Cc1cc2cccc(CNCCC(=O)N3CCc4nc(SC5CCC5)n(-c5ccccc5)c(=O)c4C3)c2o1 [Example 26, 2-cyclobutylsulfanyl-6-[3-[(2-methylbenzofuran-7-yl)methylamino]propanoyl]-3-phenyl-7,8-dihydro-5H-pyrido[4,3-d]pyrimidin-4-one trifluoroacetate] |  |  | 1 | 196
8 | O=C(CCNCc1ccc2c(c1)OCO2)N1CCc2nc(SC3CCC3)n(-c3ccccc3)c(=O)c2C1 [Example 28, 6-[3-(1,3-benzodioxol-5-ylmethylamino)propanoyl]-2-cyclobutylsulfanyl-3-phenyl-7,8-dihydro-5H-pyrido[4,3-d]pyrimidin-4-one trifluoroacetate] |  |  | 1.7 | 125
9 | O=C(CCNCC(O)c1ccccc1)N1CCc2nc(SC3CCC3)n(-c3ccccc3)c(=O)c2C1 (stereo not drawn) [Example 29, 2-cyclobutylsulfanyl-6-[3-[(2-hydroxy-2-phenyl-ethyl)amino]propanoyl]-3-phenyl-7,8-dihydro-5H-pyrido[4,3-d]pyrimidin-4-one trifluoroacetate] |  |  | 1.5 | 138
10 | O=C(CCNCCc1ccc(O)cc1)N1CCc2nc(SC3CCC3)n(-c3ccccc3)c(=O)c2C1 [Example 30, 2-cyclobutylsulfanyl-6-[3-[2-(4-hydroxyphenyl)ethylamino]propanoyl]-3-phenyl-7,8-dihydro-5H-pyrido[4,3-d]pyrimidin-4-one trifluoroacetate] |  |  | 3 | 69
11 | CN(C)c1ccc(CNCCC(=O)N2CCc3nc(SC4CCC4)n(-c4ccccc4)c(=O)c3C2)cc1 [Example 31, 2-cyclobutylsulfanyl-6-[3-[(4-dimethylaminophenyl)methylamino]propanoyl]-3-phenyl-7,8-dihydro-5H-pyrido[4,3-d]pyrimidin-4-one trifluoroacetate] |  |  | 1.6 | 130
12 | O=C(CCNCc1ccc2c(c1)CCO2)N1CCc2nc(SC3CCC3)n(-c3ccccc3)c(=O)c2C1 [Example 32, 2-cyclobutylsulfanyl-6-[3-(2,6-dihydrobenzofuran-5-ylmethylamino)propanoyl]-3-phenyl-7,8-dihydro-5H-pyrido[4,3-d]pyrimidin-4-one trifluoroacetate] |  |  | 1.3 | 166
13 | O=C(CCNCCCCCOc1ccc(C(F)(F)F)cc1)N1CCc2nc(SC3CCC3)n(-c3ccccc3)c(=O)c2C1 [Example 33, 2-cyclobutylsulfanyl-3-phenyl-6-[3-[5-[4-(trifluoromethyl)phenoxy]pentylamino]propanoyl]-7,8-dihydro-5H-pyrido[4,3-d]pyrimidin-4-one trifluoroacetate] |  |  | 0.8 | 228
14 | O=C(CCNCc1nc(Cc2ccccc2)no1)N1CCc2nc(SC3CCC3)n(-c3ccccc3)c(=O)c2C1 [Example 34, 6-[3-[(3-benzyl-1,2,4-oxadiazol-5-yl)methylamino]propanoyl]-2-cyclobutylsulfanyl-3-phenyl-7,8-dihydro-5H-pyrido[4,3-d]pyrimidin-4-one trifluoroacetate] |  |  | 3.2 | 47
15 | O=C(CCNCc1c(F)cccc1F)N1CCc2nc(SC3CCC3)n(-c3ccccc3)c(=O)c2C1 [Example 35, 2-cyclobutylsulfanyl-6-[3-[(2,6-difluorophenyl)methylamino]propanoyl]-3-phenyl-7,8-dihydro-5H-pyrido[4,3-d]pyrimidin-4-one trifluoroacetate] |  |  | 1.1 | 130
16 | C[C@@H](CNCCC(=O)N1CCc2nc(SC3CCC3)n(-c3ccccc3)c(=O)c2C1)c1ccccc1 [Example 36] |  |  | 0.7 | 205
17 | C[C@H](CNCCC(=O)N1CCc2nc(SC3CCC3)n(-c3ccccc3)c(=O)c2C1)c1ccccc1 [Example 37, 2-cyclobutylsulfanyl-3-phenyl-6-[3-[[(2S)-2-phenylpropyl]amino]propanoyl]-7,8-dihydro-5H-pyrido[4,3-d]pyrimidin-4-one trifluoroacetate] |  |  | 0.5 | 273
18 | O=C(CCNCCNc1ccccc1)N1CCc2nc(SC3CCC3)n(-c3ccccc3)c(=O)c2C1 [Example 38, 6-[3-(2-aminolinoethylamino)propanoyl]-2-cyclobutylsulfanyl-3-phenyl-7,8-dihydro-5H-pyrido[4,3-d]pyrimidin-4-one trifluoroacetate] |  |  | 1.4 | 211

Reference: US20150368242A1, “NOVEL TETRAHYDROPYRIDOPYRIMIDINONE DERIVATIVE” (Ajinomoto Co., Inc., priority 2013, published 2015)
